In one series the test system is MCF-7. Briefly: SRB antiproliferative assay, MCF-7. In kind it is cell-based, human. Here is the method: Initially, the human breast cancer cell line MCF-7 was used in a prescreen analysis of the anticancer activity of 3-arylisoquinolinones. The cells were treated with serial concentrations of compounds 2–8 for 96 h prior to the assessment of proliferation using the sulforhodamine B (SRB) assay. For each compound, the concentration required to inhibit cell growth by 50% compared to that of the untreated control cells (IC50) was determined (Table 1).
(§1) All cell lines used in the study were human-derived and purchased from ATCC (Manassas, USA). Breast adenocarcinoma MCF-7 and MDA-MB-231 cell lines were cultured in DMEM. Hepatocellular carcinoma HepG2 and SNU423 cell lines were grown in MEME combined with 1% (v/v) nonessential amino acids and RPMI supplemented with 2 mM glutamine, respectively. Lung adenocarcinoma A549 and colorectal carcinoma HCT116 cells were grown in RPMI (+2 mM glutamine). All previous media were further supplemented with 10% heat-inactivated fetal bovine serum. The immortalized, normal liver THLE-3 cells were grown in BEGM (Lonza, Cat# CC-3170) onto precoated vessels according to ATCC’s instructions. Human umbilical vein endothelial cells (HUVECs) were cultured in EGM-2 (Lonza, Cat# CC-3162). All of the cells were maintained at 37 °C and 5% CO2 in a humidified incubator.
(§2) Screening of the antiproliferative activity of 3-arylisoquinolinones was performed using the SRB assay as previously described.[56] Exponentially growing HepG2, SNU423, MDA-MB-231, MCF-7, A549, HCT116, THLE-3, and HUVECs were seeded in 96-well plates at densities of 3000, 2000, 1500, 2500, 1000, 1000, 4000, and 4000 cells/well, respectively. These densities were experimentally selected so that the DMSO-treated cells (control) were approximately 80–90% confluent at the assay’s endpoint, and their optical density (OD) values fell within the assay’s linear range. After overnight incubation, the cells were treated with a range of concentrations of the respective compounds for 96 h, 24 h followed by 72 h compound-free incubation or 24 h (for HUVECs only). After treatment, cell monolayers were fixed with 10% (w/v) trichloroacetic acid for 1 h at 4 °C, washed, and dried. Then, the cells were exposed to 0.4% (w/v) SRB dye (prepared in 1% (v/v) acetic acid; Botium, Cat# 80100) for 15 min followed by several 1% acetic acid washing and then drying. Finally, the cellular protein-bound SRB was thoroughly dissolved in 10 mM Tris base, and the OD values were read at 510 nm using a plate reader (μQuant Microplate Spectrophotometer, Biotek, U.K.) coupled with Gen5 software (BioTek, U.K.). Compound-induced changes in cell growth were inferred from changes in OD values. Cell growth was calculated using the following formula: cell growth (%) = (ODtest/ODcontrol) × 100.

Another series has as its system MDA-MB-231. Briefly: SRB antiproliferative assay, MDA-MB-231. In kind it is cell-based, human. Here is the method: (§3) In light of this substantial change in activity between the meta and para compounds, a more comprehensive analysis of the antiproliferative activity was performed for the meta-/para-3-arylisoquinolinone pairs 2 and 3, 4, and 5, as well as 6. A panel of breast (MDA-MB-231), liver (HepG2, SNU423), lung (A549), and colon (HCT116) cancer cell lines were treated with the five 3-arylisoquinolinone analogs for 96 h followed by the SRB assay. The dose–response curves (including those for MCF-7) are presented in Figure S22, and their relevant IC50 values are listed in Table 1. […] The differential activity between meta- and para-3-arylisoquinolinones was reproduced in the National Cancer Institute (NCI) one-dose screen using a panel of 59 cancer cell lines (Figure S23).
as §1, §2

A further series concerns HepG2. Briefly: SRB antiproliferative assay, HepG2. In kind it is cell-based, human. Here is the method: as §3, §1, §2
A further series deals with SNU423. Briefly: SRB antiproliferative assay, SNU423. In kind it is cell-based, human. Here is the method:
as §3, §1
as §2, with “After overnight incubation, the cells were treated with a range of concentrations of the respective compounds for 96 h, 24 h followed by 72 h compound-free incubation or 24 h (for HUVECs only).” left out

Another series has as its system A549. The experiment in a line: SRB antiproliferative assay, A549. In kind it is cell-based, human. Here is the method: as §3, §1, §2
The next series concerns HCT116. The experiment in a line: SRB antiproliferative assay, HCT116. In kind it is cell-based, human. Here is the method:
as §3, §1, §2

A further series concerns THLE-3. Briefly: SRB antiproliferative assay, normal liver cell line THLE-3. In kind it is cell-based, human. As to conditions: 24 h +drug/72 h –drug treatment, read-out: mean IC50 ± SEM, THLE-3. An excerpt: In the preceding experiments, the cells were continuously exposed to the compounds prior to scoring for the antiproliferative/cytotoxic effects. […] The meta compounds were also examined for the presence of differential antiproliferative activity against cancer cells over the normal liver cell line THLE-3. […] Moreover, the sensitivity of the six cancer cell lines toward compounds 2, 4, and 6 was markedly greater than that of THLE-3 cells.
All cell lines used in the study were human-derived and purchased from ATCC (Manassas, USA). Breast adenocarcinoma MCF-7 and MDA-MB-231 cell lines were cultured in DMEM. Hepatocellular carcinoma HepG2 and SNU423 cell lines were grown in MEME combined with 1% (v/v) nonessential amino acids and RPMI supplemented with 2 mM glutamine, respectively. Lung adenocarcinoma A549 and colorectal carcinoma HCT116 cells were grown in RPMI (+2 mM glutamine). […]
Screening of the antiproliferative activity of 3-arylisoquinolinones was performed using the SRB assay as previously described.[56] […] Finally, the cellular protein-bound SRB was thoroughly dissolved in 10 mM Tris base, and the OD values were read at 510 nm using a plate reader (μQuant Microplate Spectrophotometer, Biotek, U.K.) coupled with Gen5 software (BioTek, U.K.). […] Cell growth was calculated using the following formula: cell growth (%) = (ODtest/ODcontrol) × 100.

The subject of a further series is HepG2 cells. Briefly: Clonogenic assay. As to conditions: 0.5 or 1 μM, 14 days. In kind it is cell-based, human. Here is the method: HepG2 cells were treated with varying concentrations of 2–6 added once and kept for 14 days before counting colonies and calculating surviving fraction (Figure 2).
The ability of potential anticancer agents to prevent unlimited cell division and induce reproductive cell death was assessed using clonogenic assay as previously described.[57] In brief, HepG2 cells were seeded into six-well plates at a density of 1000 single cells/well and incubated for 10–12 h to adhere. The cells were then treated with DMSO (control) or a range of concentrations of 2–6 for 14 days. Afterward, the produced colonies were washed with phosphate-buffered saline (PBS), fixed with 70% ethanol for 20 min, and stained with 0.5% (w/v) methylene blue (prepared in 70% methanol). Following washing with water and drying, colonies (≥50 cells) were manually counted. The colony-forming efficiency (CFE) of cells was calculated by dividing the number of colonies formed by the number of cells seeded for each condition. The surviving fraction was determined by dividing the CFE of the treated cells by CFE of the control cells. A survival curve was generated by plotting the log of drug concentrations versus surviving fraction.

Where two headings read alike, the source gives them in different places.

With `COc1cccc(-c2cc3cc(F)ccc3c(=O)[nH]2)c1` [compound 2, 6-Fluoro-3-(3-methoxyphenyl)isoquinolin-1(2H)-one], the IC50 in the series on MCF-7 (24 h +drug/72 h –drug treatment, read-out: mean IC50 ± SEM, MCF-7) was 1430 ± 300 nM; in the series on MCF-7 (96 h treatment, mean ± SEM, read-out: IC50 MCF-7 (prescreen)) it was 750 ± 130 nM; in the series with MDA-MB-231 (24 h +drug/72 h –drug treatment, read-out: mean IC50 ± SEM, MDA-MB-231), 190 ± 40 nM; in the series on MDA-MB-231 (96 h treatment, mean ± SEM, read-out: IC50 MDA-MB-231) it was 170 ± 10 nM; with HepG2 (24 h +drug/72 h –drug treatment, read-out: mean IC50 ± SEM, HepG2), 2330 ± 220 nM; in the series with HepG2 (96 h treatment, mean ± SEM, read-out: IC50 HepG2), 3120 ± 340 nM. Moreover, the IC50 in the series with SNU423 (24 h +drug/72 h –drug treatment, read-out: mean IC50 ± SEM, SNU423) turned out to be 580 ± 40 nM; with SNU423 (96 h treatment, mean ± SEM, read-out: IC50 SNU423), 410 ± 30 nM; in the series on A549 (24 h +drug/72 h –drug treatment, read-out: mean IC50 ± SEM, A549) it was 830 ± 170 nM; in the series on A549 (96 h treatment, mean ± SEM, read-out: IC50 A549), 370 ± 10 nM; in the series on HCT116 (24 h +drug/72 h –drug treatment, read-out: mean IC50 ± SEM, HCT116), 200 ± 10 nM; in the series with HCT116 (96 h treatment, mean ± SEM, read-out: IC50 HCT116) it was 220 ± 20 nM. Moreover, the IC50 in the series with THLE-3 was above 25000 nM. Further, in the series on HepG2 cells, the colony formation result is listed as “No colonies were apparent”.

`O=c1[nH]c(-c2ccc(F)cc2)cc2ccc(F)cc12` [compound 8]: the melting point lay within 294 to 296 °C. Also, the IC50 in the series with MCF-7 (Homo sapiens, MCF7, 96 h treatment, mean ± SEM, read-out: IC50 MCF-7 (prescreen)) was above 50000 nM.

The values above are taken from article PMC9098178, “SAR of Novel 3-Arylisoquinolinones: meta-Substitution on the Aryl Ring Dramatically Enhances Antiproliferative Activity through Binding to Microtubules” (Journal of Medicinal Chemistry, 2022).
